System: Modified anti-cocaine aptamer (DNA, aptamer) ATCTCGGGAGACAAGGATAAATCCTTCAATGAAGTGGGTCTCCC
Assay: fluorescence dequenching
Conditions: apparent; displaced strand 5'-[…]-3'-dabcyl quencher oligo; cocaine 0-5 mM

Structure (SMILES): COC(=O)[C@H]1[C@@H](OC(=O)c2ccccc2)C[C@@H]2CC[C@H]1N2C
- K D: 134.4 ± 7.2 µM
